According to US11945816B2, “Inhibitors of EGFR and/or HER2 and methods of use” (Dana-Farber Cancer Institute, Inc., priority 2017, dated 2024):

Molecular target: T1, wild-type EGFR transformed Ba/F3 cells (Homo sapiens, UniProt P00533)
T1 construct: expressed in transfected cells; host or cells: Ba/F3
Assay: Proliferation inhibition assay, wild-type EGFR transformed Ba/F3 cells
Format: cell-based
Details: MTS assay, 72 hours
Experimental: (§1) Cell growth inhibition can be assessed by MTS assay or by Cell Titer Glo Luminescent Cell viability assay (Promega®). Cells are seeded and grow in culture plates before they are exposed to representative compounds of the application for various duration. The viability of the cells are then assessed. […] The growth curves can be fitted using a nonlinear regression model with sigmoidal dose response.
(§2) Cell growth inhibition was assessed by MTS assay for Ba/F3, DFCI58-229, and DFCI127c cells, or by Cell Titer Glo Luminescent Cell viability assay (Promega®) for DFC1362JC cells, 3000 Ba/F3 cells were seeded for per well in 96-well plates, and were exposed to representative compounds of the application (3.3 nM to 10 μM) for 72 hours. For DFCI58-229, DFCI127c, and DFC1362JC cells, 5000 cells were seeded per well. All experimental points included 6 to 12 wells. […] The growth curves were fitted using a nonlinear regression model with sigmoidal dose response.
(§3) Activities of representative compounds of the present application in inhibiting EGFR and HER2 were tested by MTS assay (for Ba/F3 cell, DFCI58-229 cell, and DFCI127c cells) or by CellTiter-Glot luminescent cell viability assay (for DFCI362JC cells). For assays with Ba/F3 cells, 3000 cells were seeded for per well in 96-well plates and were exposed to indicated compounds with a concentration of 3.3 to 10 μM for 72 hours. For assays with DFCI58-229 cell, DFCI127c cell, or DFCI362JC cell, 5000 cells were seeded per well in 96-well plates and were exposed to indicated compounds with a concentration of 3.3 to 10 μM for 72 hours.

T1 sequence (P00533 25-1210): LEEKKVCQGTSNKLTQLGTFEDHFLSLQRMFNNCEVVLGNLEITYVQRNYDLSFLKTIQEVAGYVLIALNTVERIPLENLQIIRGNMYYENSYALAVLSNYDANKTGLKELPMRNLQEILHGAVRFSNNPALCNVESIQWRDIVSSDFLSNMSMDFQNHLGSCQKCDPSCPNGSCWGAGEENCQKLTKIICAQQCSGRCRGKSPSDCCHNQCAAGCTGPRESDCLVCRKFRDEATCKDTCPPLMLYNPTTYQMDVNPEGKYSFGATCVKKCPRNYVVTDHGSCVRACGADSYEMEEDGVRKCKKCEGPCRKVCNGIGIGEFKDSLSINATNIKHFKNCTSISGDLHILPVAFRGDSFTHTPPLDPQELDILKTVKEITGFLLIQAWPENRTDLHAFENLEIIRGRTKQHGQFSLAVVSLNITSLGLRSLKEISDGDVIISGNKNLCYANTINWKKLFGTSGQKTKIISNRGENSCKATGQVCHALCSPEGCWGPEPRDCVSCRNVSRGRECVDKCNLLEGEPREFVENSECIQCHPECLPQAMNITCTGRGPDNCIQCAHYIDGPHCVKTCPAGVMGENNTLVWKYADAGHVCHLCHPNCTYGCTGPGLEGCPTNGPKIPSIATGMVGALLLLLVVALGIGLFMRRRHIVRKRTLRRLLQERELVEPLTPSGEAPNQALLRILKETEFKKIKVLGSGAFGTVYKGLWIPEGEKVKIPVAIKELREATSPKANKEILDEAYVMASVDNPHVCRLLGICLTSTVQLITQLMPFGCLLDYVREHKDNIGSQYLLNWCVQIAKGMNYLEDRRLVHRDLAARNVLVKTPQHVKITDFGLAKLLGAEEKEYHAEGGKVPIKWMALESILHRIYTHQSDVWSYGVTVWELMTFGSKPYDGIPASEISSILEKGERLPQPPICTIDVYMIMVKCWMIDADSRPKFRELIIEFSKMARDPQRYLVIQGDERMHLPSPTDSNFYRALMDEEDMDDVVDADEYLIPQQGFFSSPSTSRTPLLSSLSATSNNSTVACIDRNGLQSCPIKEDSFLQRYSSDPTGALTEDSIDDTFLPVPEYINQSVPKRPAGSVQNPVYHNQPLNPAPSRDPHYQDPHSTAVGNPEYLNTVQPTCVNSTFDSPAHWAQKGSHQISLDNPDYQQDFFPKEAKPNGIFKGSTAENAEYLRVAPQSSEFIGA

EC50 [nM] | Structure (SMILES)
< 200 | C=CC(=O)Nc1cccc(-n2c(=O)c(Oc3cc(F)c(F)cc3F)cc3cnc(Nc4cnn(C)c4)nc32)c1 [Compound 87]
< 200 | C=CC(=O)Nc1cccc(-n2c(=O)c(Oc3ccc(F)c(Cl)c3)cc3cnc(Nc4cnn(C)c4)nc32)c1 [Compound 88]
< 200 | C=CC(=O)Nc1cccc(-n2c(=O)c(Oc3ccc(Cl)cc3F)cc3cnc(Nc4cnn(C)c4)nc32)c1 [Compound 89]
200 to 600 | C=CC(=O)N1C[C@H](Cn2c(=O)c(Oc3ccc(F)cc3F)cc3cnc(N)nc32)[C@@H](OC)C1 [Compound 110]
< 200 | C=CC(=O)N1C[C@H](Cn2c(=O)c(Oc3ccc(F)cc3F)cc3cnc(NC(C)=O)nc32)[C@@H](OC)C1 [Compound 112]
< 200 | C=CC(=O)Nc1cc(Nc2ncc3cc(Oc4ccc(F)cc4F)c(=O)n(C)c3n2)ccc1N(C)CCN(C)C [Compound 116]
< 200 | C=CC(=O)Nc1cc(Nc2ncc3cc(Oc4ccc(F)cc4F)c(=O)n(C)c3n2)ccc1CCCN(C)C [Compound 117]
> 1000 | C=CC(=O)Nc1cc(Nc2ncc3cc(Oc4ccc(F)cc4F)c(=O)n(C)c3n2)c(OC)cc1C1CCNCC1 [Compound 127]
200 to 600 | C=CC(=O)Nc1cc(Nc2ncc3cc(Oc4ccc(F)cc4F)c(=O)n(C)c3n2)c(OC)cc1C1CCN(C)CC1 [Compound 128]
< 200 | C=CC(=O)Nc1cc(Nc2ncc3cc(Oc4ccc(F)cc4)c(=O)n(C)c3n2)ccc1N(C)CCN(C)C [Compound 129]
< 200 | C=CC(=O)Nc1cc(Nc2ncc3cc(Oc4ccc(F)cc4)c(=O)n(C)c3n2)c(OC)cc1N(C)CCN(C)C [Compound 130]

Molecular target: T2, HER2 InsYVMA (A775_G776insYVMA) transformed Ba/F3 cells (Homo sapiens, UniProt P04626, INS775YVMA)
T2 construct: expressed in transfected cells; host or cells: Ba/F3
Assay: Proliferation inhibition assay, HER2 InsYVMA transformed Ba/F3 cells
Format: cell-based
Details: MTS assay, 72 hours, Table 10 key
Experimental: as §1, §2, §3

EC50 [nM] | Structure (SMILES)
< 200 | C=CC(=O)Nc1cccc(-n2c(=O)c(Oc3cc(F)c(F)cc3F)cc3cnc(Nc4cnn(C)c4)nc32)c1 [Compound 87]
< 200 | C=CC(=O)Nc1cccc(-n2c(=O)c(Oc3ccc(F)c(Cl)c3)cc3cnc(Nc4cnn(C)c4)nc32)c1 [Compound 88]
< 200 | C=CC(=O)Nc1cccc(-n2c(=O)c(Oc3ccc(Cl)cc3F)cc3cnc(Nc4cnn(C)c4)nc32)c1 [Compound 89]
< 200 | C=CC(=O)N1C[C@H](Cn2c(=O)c(Oc3ccc(F)cc3F)cc3cnc(N)nc32)[C@@H](OC)C1 [Compound 110]
200 to 600 | C=CC(=O)N1C[C@H](Cn2c(=O)c(Oc3ccc(F)cc3F)cc3cnc(NC(C)=O)nc32)[C@@H](OC)C1 [Compound 112]
< 200 | C=CC(=O)Nc1cc(Nc2ncc3cc(Oc4ccc(F)cc4F)c(=O)n(C)c3n2)ccc1N(C)CCN(C)C [Compound 116]
< 200 | C=CC(=O)Nc1cc(Nc2ncc3cc(Oc4ccc(F)cc4F)c(=O)n(C)c3n2)ccc1CCCN(C)C [Compound 117]
> 1000 | C=CC(=O)Nc1cc(Nc2ncc3cc(Oc4ccc(F)cc4F)c(=O)n(C)c3n2)c(OC)cc1C1CCNCC1 [Compound 127]
< 200 | C=CC(=O)Nc1cc(Nc2ncc3cc(Oc4ccc(F)cc4F)c(=O)n(C)c3n2)c(OC)cc1C1CCN(C)CC1 [Compound 128]
< 200 | C=CC(=O)Nc1cc(Nc2ncc3cc(Oc4ccc(F)cc4)c(=O)n(C)c3n2)ccc1N(C)CCN(C)C [Compound 129]
< 200 | C=CC(=O)Nc1cc(Nc2ncc3cc(Oc4ccc(F)cc4)c(=O)n(C)c3n2)c(OC)cc1N(C)CCN(C)C [Compound 130]
< 200 | C=CC(=O)Nc1cc(Nc2ncc3cc(Oc4ccc(F)c(Cl)c4)c(=O)n(C)c3n2)c(OC)cc1N(C)CCN(C)C [Compound 137]

Molecular target: T3, EGFR InsSVD (D770_N771insSVD) transformed Ba/F3 cells (Homo sapiens, UniProt P00533, INS770SVD)
T3 construct: expressed in transfected cells; host or cells: Ba/F3
T3 sequence (P00533 with tags, fused parts or gaps INS770SVD): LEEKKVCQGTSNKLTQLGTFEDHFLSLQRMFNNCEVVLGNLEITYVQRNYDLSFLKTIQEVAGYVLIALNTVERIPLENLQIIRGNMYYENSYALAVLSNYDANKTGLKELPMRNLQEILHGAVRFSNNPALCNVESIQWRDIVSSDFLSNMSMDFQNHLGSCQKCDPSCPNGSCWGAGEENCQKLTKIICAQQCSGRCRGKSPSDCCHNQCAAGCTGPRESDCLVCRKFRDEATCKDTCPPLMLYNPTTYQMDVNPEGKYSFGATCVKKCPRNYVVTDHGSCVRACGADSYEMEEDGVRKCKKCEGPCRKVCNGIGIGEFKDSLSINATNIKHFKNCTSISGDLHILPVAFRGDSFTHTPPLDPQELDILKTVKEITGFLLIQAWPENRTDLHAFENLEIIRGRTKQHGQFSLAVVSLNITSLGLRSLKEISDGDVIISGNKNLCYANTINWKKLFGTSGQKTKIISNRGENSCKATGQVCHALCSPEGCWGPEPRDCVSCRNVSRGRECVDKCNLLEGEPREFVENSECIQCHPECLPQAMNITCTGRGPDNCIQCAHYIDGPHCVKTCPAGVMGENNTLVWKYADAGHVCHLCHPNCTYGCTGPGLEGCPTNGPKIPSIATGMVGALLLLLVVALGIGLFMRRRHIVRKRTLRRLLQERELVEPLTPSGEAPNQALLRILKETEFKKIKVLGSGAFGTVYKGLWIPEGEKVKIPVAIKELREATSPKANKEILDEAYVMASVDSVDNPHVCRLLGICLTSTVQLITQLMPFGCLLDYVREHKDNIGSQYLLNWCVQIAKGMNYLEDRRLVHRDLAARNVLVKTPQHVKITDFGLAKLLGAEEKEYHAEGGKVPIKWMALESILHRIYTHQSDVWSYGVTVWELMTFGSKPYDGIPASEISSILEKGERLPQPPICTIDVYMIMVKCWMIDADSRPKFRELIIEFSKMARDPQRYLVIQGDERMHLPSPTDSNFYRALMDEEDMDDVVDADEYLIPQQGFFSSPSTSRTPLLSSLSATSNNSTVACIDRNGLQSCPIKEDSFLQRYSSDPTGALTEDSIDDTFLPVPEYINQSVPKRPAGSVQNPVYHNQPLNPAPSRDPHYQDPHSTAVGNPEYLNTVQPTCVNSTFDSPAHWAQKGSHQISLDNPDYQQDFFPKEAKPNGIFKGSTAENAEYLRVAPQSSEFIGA
Assay: Proliferation inhibition assay, EGFR InsSVD transformed Ba/F3 cells
Format: cell-based
Details: MTS assay, 72 hours
Experimental: as §1, §2, §3

EC50 [nM] | Structure (SMILES)
< 200 | C=CC(=O)Nc1cccc(-n2c(=O)c(Oc3cc(F)c(F)cc3F)cc3cnc(Nc4cnn(C)c4)nc32)c1 [Compound 87]
< 200 | C=CC(=O)Nc1cccc(-n2c(=O)c(Oc3ccc(F)c(Cl)c3)cc3cnc(Nc4cnn(C)c4)nc32)c1 [Compound 88]
< 200 | C=CC(=O)Nc1cccc(-n2c(=O)c(Oc3ccc(Cl)cc3F)cc3cnc(Nc4cnn(C)c4)nc32)c1 [Compound 89]
< 200 | C=CC(=O)N1C[C@H](Cn2c(=O)c(Oc3ccc(F)cc3F)cc3cnc(N)nc32)[C@@H](OC)C1 [Compound 110]
< 200 | C=CC(=O)N1C[C@H](Cn2c(=O)c(Oc3ccc(F)cc3F)cc3cnc(NC(C)=O)nc32)[C@@H](OC)C1 [Compound 112]
< 200 | C=CC(=O)Nc1cc(Nc2ncc3cc(Oc4ccc(F)cc4F)c(=O)n(C)c3n2)ccc1N(C)CCN(C)C [Compound 116]
200 to 600 | C=CC(=O)Nc1cc(Nc2ncc3cc(Oc4ccc(F)cc4F)c(=O)n(C)c3n2)ccc1CCCN(C)C [Compound 117]
> 1000 | C=CC(=O)Nc1cc(Nc2ncc3cc(Oc4ccc(F)cc4F)c(=O)n(C)c3n2)c(OC)cc1C1CCNCC1 [Compound 127]
600 to 1000 | C=CC(=O)Nc1cc(Nc2ncc3cc(Oc4ccc(F)cc4F)c(=O)n(C)c3n2)c(OC)cc1C1CCN(C)CC1 [Compound 128]
200 to 600 | C=CC(=O)Nc1cc(Nc2ncc3cc(Oc4ccc(F)cc4)c(=O)n(C)c3n2)ccc1N(C)CCN(C)C [Compound 129]
< 200 | C=CC(=O)Nc1cc(Nc2ncc3cc(Oc4ccc(F)cc4)c(=O)n(C)c3n2)c(OC)cc1N(C)CCN(C)C [Compound 130]

Molecular target: T4, EGFR InsH transformed Ba/F3 cells (Homo sapiens, UniProt P00533, DUP773-773)
T4 construct: expressed in transfected cells; host or cells: Ba/F3
T4 sequence (P00533 with tags, fused parts or gaps DUP773-773): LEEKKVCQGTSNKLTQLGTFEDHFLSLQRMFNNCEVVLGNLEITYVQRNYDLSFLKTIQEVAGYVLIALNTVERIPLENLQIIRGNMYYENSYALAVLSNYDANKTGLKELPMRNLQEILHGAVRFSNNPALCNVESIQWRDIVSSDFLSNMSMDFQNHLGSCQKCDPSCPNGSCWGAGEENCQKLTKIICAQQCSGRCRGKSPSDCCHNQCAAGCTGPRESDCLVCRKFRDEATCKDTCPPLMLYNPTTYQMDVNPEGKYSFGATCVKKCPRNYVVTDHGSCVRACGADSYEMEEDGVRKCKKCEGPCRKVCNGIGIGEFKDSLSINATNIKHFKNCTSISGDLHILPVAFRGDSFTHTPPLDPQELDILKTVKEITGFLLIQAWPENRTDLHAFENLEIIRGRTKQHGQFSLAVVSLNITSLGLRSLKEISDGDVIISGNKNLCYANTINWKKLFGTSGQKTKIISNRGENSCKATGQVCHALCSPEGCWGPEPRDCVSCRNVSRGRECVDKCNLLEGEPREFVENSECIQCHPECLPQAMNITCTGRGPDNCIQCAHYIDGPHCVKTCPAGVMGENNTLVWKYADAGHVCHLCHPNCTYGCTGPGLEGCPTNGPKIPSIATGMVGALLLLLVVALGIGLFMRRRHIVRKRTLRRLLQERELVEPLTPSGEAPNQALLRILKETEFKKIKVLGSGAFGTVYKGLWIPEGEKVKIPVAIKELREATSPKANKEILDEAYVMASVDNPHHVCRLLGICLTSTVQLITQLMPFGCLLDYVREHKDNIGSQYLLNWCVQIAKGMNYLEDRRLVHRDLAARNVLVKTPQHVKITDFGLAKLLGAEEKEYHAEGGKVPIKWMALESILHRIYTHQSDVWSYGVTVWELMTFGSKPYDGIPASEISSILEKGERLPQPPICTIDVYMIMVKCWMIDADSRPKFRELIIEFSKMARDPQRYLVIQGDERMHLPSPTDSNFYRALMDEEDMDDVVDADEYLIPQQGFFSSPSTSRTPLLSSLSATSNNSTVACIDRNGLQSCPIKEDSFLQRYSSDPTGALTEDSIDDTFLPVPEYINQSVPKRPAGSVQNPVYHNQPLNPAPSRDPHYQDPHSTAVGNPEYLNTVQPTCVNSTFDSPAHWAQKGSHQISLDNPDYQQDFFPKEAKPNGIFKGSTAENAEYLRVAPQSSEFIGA
Assay: Proliferation inhibition assay, EGFR InsH transformed Ba/F3 cells
Format: cell-based
Details: MTS assay, 72 hours
Experimental: as §1, §2, §3

EC50 [nM] | Structure (SMILES)
600 to 1000 | C=CC(=O)Nc1cccc(-n2c(=O)c(Oc3cc(F)c(F)cc3F)cc3cnc(Nc4cnn(C)c4)nc32)c1 [Compound 87]
200 to 600 | C=CC(=O)Nc1cccc(-n2c(=O)c(Oc3ccc(F)c(Cl)c3)cc3cnc(Nc4cnn(C)c4)nc32)c1 [Compound 88]
200 to 600 | C=CC(=O)Nc1cccc(-n2c(=O)c(Oc3ccc(Cl)cc3F)cc3cnc(Nc4cnn(C)c4)nc32)c1 [Compound 89]
< 200 | C=CC(=O)Nc1cc(Nc2ncc3cc(Oc4ccc(F)cc4F)c(=O)n(C)c3n2)ccc1N(C)CCN(C)C [Compound 116]
> 1000 | C=CC(=O)Nc1cc(Nc2ncc3cc(Oc4ccc(F)cc4F)c(=O)n(C)c3n2)ccc1CCCN(C)C [Compound 117]
> 1000 | C=CC(=O)Nc1cc(Nc2ncc3cc(Oc4ccc(F)cc4)c(=O)n(C)c3n2)ccc1N(C)CCN(C)C [Compound 129]
< 200 | C=CC(=O)Nc1cc(Nc2ncc3cc(Oc4ccc(F)cc4)c(=O)n(C)c3n2)c(OC)cc1N(C)CCN(C)C [Compound 130]

Molecular target: T5, HER2 InsWLV transformed Ba/F3 cells (Homo sapiens, UniProt P04626, INS773WL/M774V)
T5 construct: expressed in transfected cells; host or cells: Ba/F3
Assay: Proliferation inhibition assay, HER2 InsWLV transformed Ba/F3 cells
Format: cell-based
Details: MTS assay, 72 hours, Table 10 key
Experimental: as §1, §2, §3

EC50 [nM] | Structure (SMILES)
< 200 | C=CC(=O)Nc1cccc(-n2c(=O)c(Oc3cc(F)c(F)cc3F)cc3cnc(Nc4cnn(C)c4)nc32)c1 [Compound 87]
200 to 600 | C=CC(=O)Nc1cccc(-n2c(=O)c(Oc3ccc(F)c(Cl)c3)cc3cnc(Nc4cnn(C)c4)nc32)c1 [Compound 88]
< 200 | C=CC(=O)Nc1cccc(-n2c(=O)c(Oc3ccc(Cl)cc3F)cc3cnc(Nc4cnn(C)c4)nc32)c1 [Compound 89]
< 200 | C=CC(=O)Nc1cc(Nc2ncc3cc(Oc4ccc(F)cc4F)c(=O)n(C)c3n2)ccc1N(C)CCN(C)C [Compound 116]
200 to 600 | C=CC(=O)Nc1cc(Nc2ncc3cc(Oc4ccc(F)cc4F)c(=O)n(C)c3n2)ccc1CCCN(C)C [Compound 117]
600 to 1000 | C=CC(=O)Nc1cc(Nc2ncc3cc(Oc4ccc(F)cc4)c(=O)n(C)c3n2)ccc1N(C)CCN(C)C [Compound 129]
< 200 | C=CC(=O)Nc1cc(Nc2ncc3cc(Oc4ccc(F)cc4)c(=O)n(C)c3n2)c(OC)cc1N(C)CCN(C)C [Compound 130]
< 200 | C=CC(=O)Nc1cc(Nc2ncc3cc(Oc4ccc(F)c(Cl)c4)c(=O)n(C)c3n2)c(OC)cc1N(C)CCN(C)C [Compound 137]

Molecular target: T6, wild-type HER2 transformed Ba/F3 cells (Homo sapiens, UniProt P04626)
T6 construct: expressed in transfected cells; host or cells: Ba/F3
T6 sequence (P04626 23-1255): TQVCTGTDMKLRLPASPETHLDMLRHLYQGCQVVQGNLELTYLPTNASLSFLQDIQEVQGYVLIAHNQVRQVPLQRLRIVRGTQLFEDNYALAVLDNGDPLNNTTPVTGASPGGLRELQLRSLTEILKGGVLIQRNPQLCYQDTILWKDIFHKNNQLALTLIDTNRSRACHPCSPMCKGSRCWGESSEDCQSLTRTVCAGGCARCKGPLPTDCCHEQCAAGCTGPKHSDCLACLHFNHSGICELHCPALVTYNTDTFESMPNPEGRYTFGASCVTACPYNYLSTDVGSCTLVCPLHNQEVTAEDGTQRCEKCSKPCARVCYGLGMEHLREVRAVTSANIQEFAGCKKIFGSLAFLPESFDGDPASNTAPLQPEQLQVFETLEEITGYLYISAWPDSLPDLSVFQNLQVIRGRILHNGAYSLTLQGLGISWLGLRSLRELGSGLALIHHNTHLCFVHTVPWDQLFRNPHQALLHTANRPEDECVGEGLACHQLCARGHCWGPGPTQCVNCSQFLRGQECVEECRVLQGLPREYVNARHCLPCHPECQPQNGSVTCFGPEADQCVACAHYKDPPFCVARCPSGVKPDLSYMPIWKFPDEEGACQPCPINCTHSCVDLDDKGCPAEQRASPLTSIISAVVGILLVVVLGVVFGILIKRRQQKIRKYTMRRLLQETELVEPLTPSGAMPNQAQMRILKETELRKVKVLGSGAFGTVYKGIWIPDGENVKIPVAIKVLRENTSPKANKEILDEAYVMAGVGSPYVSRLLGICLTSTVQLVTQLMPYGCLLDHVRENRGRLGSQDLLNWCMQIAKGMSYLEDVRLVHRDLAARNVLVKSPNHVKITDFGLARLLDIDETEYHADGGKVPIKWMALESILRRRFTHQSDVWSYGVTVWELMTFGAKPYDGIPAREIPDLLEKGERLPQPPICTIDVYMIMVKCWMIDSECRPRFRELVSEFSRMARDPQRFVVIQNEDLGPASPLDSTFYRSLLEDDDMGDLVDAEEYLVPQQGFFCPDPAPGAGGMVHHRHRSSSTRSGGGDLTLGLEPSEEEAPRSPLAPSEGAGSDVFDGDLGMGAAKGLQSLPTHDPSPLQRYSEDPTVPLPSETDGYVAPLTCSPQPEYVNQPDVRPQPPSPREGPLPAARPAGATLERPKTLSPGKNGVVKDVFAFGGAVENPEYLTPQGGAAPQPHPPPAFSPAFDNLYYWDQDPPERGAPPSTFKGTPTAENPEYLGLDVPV
Assay: Proliferation inhibition assay, wild-type HER2 transformed Ba/F3 cells
Format: cell-based
Details: MTS assay, 72 hours, Table 10 key
Experimental: as §1, §2, §3

EC50 [nM] | Structure (SMILES)
< 200 | C=CC(=O)Nc1cccc(-n2c(=O)c(Oc3cc(F)c(F)cc3F)cc3cnc(Nc4cnn(C)c4)nc32)c1 [Compound 87]
< 200 | C=CC(=O)Nc1cccc(-n2c(=O)c(Oc3ccc(F)c(Cl)c3)cc3cnc(Nc4cnn(C)c4)nc32)c1 [Compound 88]
< 200 | C=CC(=O)Nc1cccc(-n2c(=O)c(Oc3ccc(Cl)cc3F)cc3cnc(Nc4cnn(C)c4)nc32)c1 [Compound 89]
< 200 | C=CC(=O)N1C[C@H](Cn2c(=O)c(Oc3ccc(F)cc3F)cc3cnc(N)nc32)[C@@H](OC)C1 [Compound 110]
200 to 600 | C=CC(=O)N1C[C@H](Cn2c(=O)c(Oc3ccc(F)cc3F)cc3cnc(NC(C)=O)nc32)[C@@H](OC)C1 [Compound 112]
< 200 | C=CC(=O)Nc1cc(Nc2ncc3cc(Oc4ccc(F)cc4F)c(=O)n(C)c3n2)ccc1N(C)CCN(C)C [Compound 116]
< 200 | C=CC(=O)Nc1cc(Nc2ncc3cc(Oc4ccc(F)cc4F)c(=O)n(C)c3n2)ccc1CCCN(C)C [Compound 117]
> 1000 | C=CC(=O)Nc1cc(Nc2ncc3cc(Oc4ccc(F)cc4F)c(=O)n(C)c3n2)c(OC)cc1C1CCNCC1 [Compound 127]
200 to 600 | C=CC(=O)Nc1cc(Nc2ncc3cc(Oc4ccc(F)cc4F)c(=O)n(C)c3n2)c(OC)cc1C1CCN(C)CC1 [Compound 128]
< 200 | C=CC(=O)Nc1cc(Nc2ncc3cc(Oc4ccc(F)cc4)c(=O)n(C)c3n2)ccc1N(C)CCN(C)C [Compound 129]
< 200 | C=CC(=O)Nc1cc(Nc2ncc3cc(Oc4ccc(F)cc4)c(=O)n(C)c3n2)c(OC)cc1N(C)CCN(C)C [Compound 130]
< 200 | C=CC(=O)Nc1cc(Nc2ncc3cc(Oc4ccc(F)c(Cl)c4)c(=O)n(C)c3n2)c(OC)cc1N(C)CCN(C)C [Compound 137]
